# From the supplement of paper PMC11208160
# Test: recombinant UMI read abundance after kanamycin selection (control-corrected) (log10(CPM+1)); higher = more efficient recombination; extreme values may be limits of the assay; sequences stand for … in AGTGCAGAGAAAATCGGCCAGTTTTCTCTGCCTGCAGTCCGCATGCCGTGGGACCCCTTGGGTTCTAACCTGTTGCCTAGATTTATGCAGCGGACTGCCTTTCTCCCAAAGTGATAAACCGG…AGGTTGGTTTCACT; site = the 11-nt donor
# Summary of the method: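 After plating on IPTG (0.07 mM) plus kanamycin, or unselected, in two replicates, recombinant UMIs were PCR-amplified across the donor–target junction and sequenced. The cells were Escherichia coli co-electroporated with a UMI-tagged donor and donor-binding-loop pair library and a target plasmid with a fixed target and T7-inducible IS621 bridge recombinase. Values are log10(CPM+1), with CPM averaged over replicates and scaled by control-derived factors.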
row,Sequence,recombinant UMI read abundance (log10)
1,TCAGAGACATGGACCGGTTTTCCCGGTAATCCGTATTTGAG (site TCAGAGACTCA),0.02
2,TCAGAGACATGGACCGGTTTTCCCGGTAATCCGTATTTGAG (site TCAGAGACTCC),0.288
3,TCAGAGACATGGACCGGTTTTCCCGGTAATCCGTATTTGAG (site TCAGAGACTCG),0.938
4,TCAGAGACATGGACCGGTTTTCCCGGTAATCCGTATTTGAG (site TCAGAGACTCT),1.82
5,TCAGAGACATGGACCGGTTTTCCCGGTAATCCGTATTTGCG (site ACAGAGACTCG),1.11
6,TCAGAGACATGGACCGGTTTTCCCGGTAATCCGTATTTGCG (site CCAGAGACTCG),1.66
7,TCAGAGACATGGACCGGTTTTCCCGGTAATCCGTATTTGCG (site GCAGAGACTCG),0.00466
8,TCAGAGACATGGACCGGTTTTCCCGGTAATCCGTATTTGCG (site TAAGAGACTCG),1.02
9,TCAGAGACATGGACCGGTTTTCCCGGTAATCCGTATTTGCG (site TCAAAGACTCG),1.55
10,TCAGAGACATGGACCGGTTTTCCCGGTAATCCGTATTTGCG (site TCACAGACTCG),0.316
11,TCAGAGACATGGACCGGTTTTCCCGGTAATCCGTATTTGCG (site TCAGAAACTCG),1.73
12,TCAGAGACATGGACCGGTTTTCCCGGTAATCCGTATTTGCG (site TCAGACACTCG),0.327
13,TCAGAGACATGGACCGGTTTTCCCGGTAATCCGTATTTGCG (site TCAGAGACTAG),0.65
14,TCAGAGACATGGACCGGTTTTCCCGGTAATCCGTATTTGCG (site TCAGAGACTCA),0.943
15,TCAGAGACATGGACCGGTTTTCCCGGTAATCCGTATTTGCG (site TCAGAGACTCC),0.0212
16,TCAGAGACATGGACCGGTTTTCCCGGTAATCCGTATTTGCG (site TCAGAGACTCG),2.3
17,TCAGAGACATGGACCGGTTTTCCCGGTAATCCGTATTTGCG (site TCAGAGACTCT),0.0281
18,TCAGAGACATGGACCGGTTTTCCCGGTAATCCGTATTTGCG (site TCAGAGACTGG),0.387
19,TCAGAGACATGGACCGGTTTTCCCGGTAATCCGTATTTGCG (site TCAGAGACTTG),1.84
20,TCAGAGACATGGACCGGTTTTCCCGGTAATCCGTATTTGCG (site TCAGAGCCTCG),0.0106
21,TCAGAGACATGGACCGGTTTTCCCGGTAATCCGTATTTGCG (site TCAGAGGCTCG),1.98
22,TCAGAGACATGGACCGGTTTTCCCGGTAATCCGTATTTGCG (site TCAGAGTCTCG),1.37
23,TCAGAGACATGGACCGGTTTTCCCGGTAATCCGTATTTGCG (site TCAGATACTCG),0.784
24,TCAGAGACATGGACCGGTTTTCCCGGTAATCCGTATTTGCG (site TCAGCGACTCG),0.00351
25,TCAGAGACATGGACCGGTTTTCCCGGTAATCCGTATTTGCG (site TCAGGGACTCG),0.0144

row,Sequence,recombinant UMI read abundance (log10)
1,TCAGAGACATGGACCGGTTTTCCCGGTAATCCGTATTTGCG (site TCAGTGACTCG),0.0233
2,TCAGAGACATGGACCGGTTTTCCCGGTAATCCGTATTTGCG (site TCATAGACTCG),0.524
3,TCAGAGACATGGACCGGTTTTCCCGGTAATCCGTATTTGCG (site TCCGAGACTCG),0.462
4,TCAGAGACATGGACCGGTTTTCCCGGTAATCCGTATTTGCG (site TCGGAGACTCG),0.836
5,TCAGAGACATGGACCGGTTTTCCCGGTAATCCGTATTTGCG (site TCTGAGACTCG),0.346
6,TCAGAGACATGGACCGGTTTTCCCGGTAATCCGTATTTGCG (site TGAGAGACTCG),0.498
7,TCAGAGACATGGACCGGTTTTCCCGGTAATCCGTATTTGCG (site TTAGAGACTCG),1.56
8,TCAGAGGCATGGACCGGTTTTCCCGGTAATCCGTATTTGCG (site TCAGAGACTCG),0.431
9,TCAGAGGCATGGACCGGTTTTCCCGGTAATCCGTATTTGCG (site TCAGAGCCTCG),0.0967
10,TCAGAGGCATGGACCGGTTTTCCCGGTAATCCGTATTTGCG (site TCAGAGGCTCG),1.26
11,TCAGAGGCATGGACCGGTTTTCCCGGTAATCCGTATTTGCG (site TCAGAGTCTCG),2.18
12,TCAGGTACATGGACCGGTTTTCCCGGTAATCCGTATTTGCA (site TCAGGTACTTG),2.02
13,TCAGGTGCATGGACCGGTTTTCCCGGTAATCCGTATTTGAT (site ACAGGTGCTAT),0
14,TCAGGTGCATGGACCGGTTTTCCCGGTAATCCGTATTTGAT (site CCAGGTGCTAT),1.06
15,TCAGGTGCATGGACCGGTTTTCCCGGTAATCCGTATTTGAT (site GCAGGTGCTAT),0.018
16,TCAGGTGCATGGACCGGTTTTCCCGGTAATCCGTATTTGAT (site TCAGGTGCTAT),1.74
17,TCAGGTTCATGGACCGGTTTTCCCGGTAATCCGTATTTGGA (site TCAGGTTCTTC),2.16
18,TCAGTATCATGGACCGGTTTTCCCGGTAATCCGTATTTGCA (site ACAGTATCTTG),1.93
19,TCAGTATCATGGACCGGTTTTCCCGGTAATCCGTATTTGCA (site CCAGTATCTTG),2.06
20,TCAGTATCATGGACCGGTTTTCCCGGTAATCCGTATTTGCA (site GCAGTATCTTG),0.463
21,TCAGTATCATGGACCGGTTTTCCCGGTAATCCGTATTTGCA (site TCAGTATCTTG),2.23
22,TCAGTATCATGGACCGGTTTTCCCGGTAATCCGTATTTGTA (site ACAGTATCTTG),0.377
23,TCAGTATCATGGACCGGTTTTCCCGGTAATCCGTATTTGTA (site TCAGTATCTTA),2.5
24,TCAGTCACATGGACCGGTTTTCCCGGTAATCCGTATTTGAG (site TCAGTCACTCT),0.702
25,TCAGTGACATGGACCGGTTTTCCCGGTAATCCGTATTTGCG (site TCAGAGACTCG),0.0602

row,Sequence,recombinant UMI read abundance (log10)
1,TCAGTGACATGGACCGGTTTTCCCGGTAATCCGTATTTGCG (site TCAGCGACTCG),0.00331
2,TCAGTGACATGGACCGGTTTTCCCGGTAATCCGTATTTGCG (site TCAGGGACTCG),0.00386
3,TCAGTGACATGGACCGGTTTTCCCGGTAATCCGTATTTGCG (site TCAGTGACTCG),1.21
4,TCATACTCATGGACCGGTTTTCCCGGTAATCCGTATTTGCG (site TCATACTCTAG),0
5,TCATACTCATGGACCGGTTTTCCCGGTAATCCGTATTTGCG (site TCATACTCTCG),2.57
6,TCATACTCATGGACCGGTTTTCCCGGTAATCCGTATTTGCG (site TCATACTCTGG),0.0107
7,TCATACTCATGGACCGGTTTTCCCGGTAATCCGTATTTGCG (site TCATACTCTTG),2.1
8,TCATAGGCATGGACCGGTTTTCCCGGTAATCCGTATTTGAG (site TCATAGGCTCT),1.46
9,TCATCTTCATGGACCGGTTTTCCCGGTAATCCGTATTTGGT (site TCATCTTCTAC),0.467
10,TCATGACCATGGACCGGTTTTCCCGGTAATCCGTATTTGCC (site TCATGACCTGG),0
11,TCATGACCATGGACCGGTTTTCCCGGTAATCCGTATTTGCG (site TCATGACCTCG),0.00794
12,TCATGAGCATGGACCGGTTTTCCCGGTAATCCGTATTTGGG (site TAATGAGCTCC),0.0178
13,TCATGAGCATGGACCGGTTTTCCCGGTAATCCGTATTTGGG (site TCATGAGCTCC),0.0121
14,TCATGAGCATGGACCGGTTTTCCCGGTAATCCGTATTTGGG (site TGATGAGCTCC),0.00797
15,TCATGAGCATGGACCGGTTTTCCCGGTAATCCGTATTTGGG (site TTATGAGCTCC),0.00944
16,TCATGTCCATGGACCGGTTTTCCCGGTAATCCGTATTTGTG (site TCATGTCCTCA),0
17,TCATTCTCATGGACCGGTTTTCCCGGTAATCCGTATTTGCA (site TCATACTCTTG),1.25
18,TCATTCTCATGGACCGGTTTTCCCGGTAATCCGTATTTGCA (site TCATCCTCTTG),0
19,TCATTCTCATGGACCGGTTTTCCCGGTAATCCGTATTTGCA (site TCATGCTCTTG),0.00845
20,TCATTCTCATGGACCGGTTTTCCCGGTAATCCGTATTTGCA (site TCATTCTCTTG),1.41
21,TCCAAAGCATGGACCGGTTTTCCCGGTAATCCGTATTTGGA (site TCCAAAGCTTC),0.0225
22,TCCAAGTCATGGACCGGTTTTCCCGGTAATCCGTATTTGCC (site TCCAAATCTGG),0
23,TCCAAGTCATGGACCGGTTTTCCCGGTAATCCGTATTTGCC (site TCCAACTCTGG),0
24,TCCAAGTCATGGACCGGTTTTCCCGGTAATCCGTATTTGCC (site TCCAAGTCTGG),0
25,TCCAAGTCATGGACCGGTTTTCCCGGTAATCCGTATTTGCC (site TCCAATTCTGG),0
